Literature values, collected in US7033983B2, “Detergent compositions” (Unilever Home and Personal Care USA a division of Conopco, …, priority 2002, dated 2006).

Details: highly water-soluble materials; saturated solution in 100 g deionised water at 20° C.

Water Solubility: >100 g/100 g
SMILES: NC(N)=O [Urea]
